Reference: ChEMBL document CHEMBL1201862, “PubChem BioAssay data set” (2004)
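Where inhibition never reached the appropriate level, the endpoint shown equals the highest concentration tested. Otherwise, values were interpolated linearly from a five-concentration, 48-hour dose response in 96-well plates. At the GI50, growth is halved.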 Activity calls are given as the source filed them. Cut-off read from the data, not from the text of the source: active = GI50 up to about 1.1 µM and inactive = higher.

Experiments:
Assay in all cases: DTP human tumour cell line panel, 48 h
PC-3 = tested on: PC-3
HOP-62 = tested on: HOP-62
UACC-257 = tested on: UACC-257
M14 = tested on: M14
HCC 2998 = tested on: HCC 2998
MDA-N = tested on: MDA-N
SK-MEL-5 = tested on: SK-MEL-5
LOX IMVI = tested on: LOX IMVI
ACHN = tested on: ACHN
SK-MEL-28 = tested on: SK-MEL-28
HL-60 = tested on: HL-60
Malme-3M = tested on: Malme-3M
SNB-19 = tested on: SNB-19
HT-29 = tested on: HT-29
SF-268 = tested on: SF-268
NCI-H226 = tested on: NCI-H226
SK-OV-3 = tested on: SK-OV-3
SF-539 = tested on: SF-539
UACC-62 = tested on: UACC-62

Measured: GI50

O=c1[nH]nc(Nc2ccccc2)c2nnn(C3CCCCC3)c12
inactive: PC-3 > 100 µM | HOP-62 > 100 µM | UACC-257 > 100 µM | M14 > 100 µM | HCC 2998 > 100 µM | MDA-N > 100 µM | SK-MEL-5 > 100 µM | LOX IMVI > 100 µM | ACHN > 100 µM | SK-MEL-28 > 100 µM | HL-60 > 100 µM | Malme-3M > 100 µM | SNB-19 > 100 µM | HT-29 > 100 µM

CC(=O)OCC1OC(c2c(OC(C)=O)cc(C)c3c(=O)cc(/C(C(C)=O)=C(\C)O)oc23)C(OC(C)=O)C(OC(C)=O)C1OC(C)=O (stereo unspecified)
inactive: SF-268 87.7 µM | PC-3 > 100 µM | NCI-H226 > 100 µM | HOP-62 > 100 µM | UACC-257 > 100 µM | M14 > 100 µM | HCC 2998 > 100 µM | MDA-N > 100 µM | SK-OV-3 > 100 µM | SK-MEL-5 > 100 µM | ACHN > 100 µM | SK-MEL-28 > 100 µM | HL-60 > 100 µM | Malme-3M > 100 µM | SF-539 > 100 µM | SNB-19 > 100 µM | UACC-62 > 100 µM | HT-29 > 100 µM

CC(C)(C)OC(=O)N1CCC[C@H]1CSC[C@@H]1CCCN1C(=O)OC(C)(C)C
inactive: SF-268 39.4 µM | PC-3 26.9 µM | HOP-62 41.5 µM | UACC-257 28.8 µM | M14 18.6 µM | HCC 2998 39.8 µM | MDA-N 29.4 µM | SK-OV-3 69.5 µM | SK-MEL-5 18.7 µM | LOX IMVI 17.6 µM | ACHN 32.2 µM | SK-MEL-28 24.6 µM | Malme-3M 25.6 µM | SNB-19 25.4 µM | UACC-62 21.7 µM | HT-29 17.8 µM

COc1ccc(C(=O)C#Cc2cn(C3CC(O)C(CO)O3)c(=O)[nH]c2=O)cc1 (stereo unspecified)
inactive: SF-268 53 µM | PC-3 > 100 µM | NCI-H226 32 µM | HOP-62 > 100 µM | UACC-257 94.8 µM | M14 17.9 µM | HCC 2998 > 100 µM | MDA-N 60.3 µM | SK-OV-3 > 100 µM | SK-MEL-5 28.4 µM | ACHN > 100 µM | SK-MEL-28 20.4 µM | HL-60 > 10 µM | Malme-3M 10.4 µM | SF-539 19.3 µM | SNB-19 > 100 µM | UACC-62 55.5 µM | HT-29 > 100 µM
